{"source": "patent US9175016B2", "about": "“Prochelators useful for inhibiting metal-associated toxicity” (Duke University, priority 2009, dated 2015)", "key": {"H2O2 production by Cu": {"system": "H2O2 production by Cu", "experiment": "Hydrogen peroxide detection by the Amplex Red/HRP assay (Aβ, Cu(Gly)2, ascorbic acid)", "format": "biochemical", "protocol": "FIG. 6. Hydrogen peroxide detection by the Amplex Red/HRP assay for samples containing various combinations of 200 nm Aβ, 200 nm Cu(Gly)2, 10 μM ascorbic acid, 2-200 μM QBP, 50-400 nm 8HQ, in a total volume of 50 μL buffer (50 mM hepes, 150 mM NaCl). Samples were incubated at 37° C. for approximately 1 h before 50 μL of Amplex Red/HRP reagent was added. Fluorescence readings were taken with λex=485 and λem=590 nm.\n(§1) The complex [Cu(8HQ)2] has a characteristic absorbance band at 375 nm, which is clearly visible in samples that contain Aβ, Cu^2+ and 8HQ. […] Mass spectral analysis of the sample gives m/z of 352, further confirming formation of [Cu(8HQ)2] in these complex mixtures. The previous experiment contained a relatively high concentration (1 mM) of H2O2 that was added in a single bolus. Several groups have shown that combinations of Aβ, Cu and reductants produce significant amounts of H2O2 from O2. Therefore, to investigate whether these conditions of more biologically relevant H2O2 production are sufficient for activating QPB, samples of Aβ, Cu^2+ (provided as Cu(Gly)2), ascorbic acid, and either 8HQ or QBP were monitored for H2O2 production with the Amplex Red assay. […] Samples that contain Cu and ascorbate (with or without Aβ) provide just over 300 nM detectable H2O2. […] When 8HQ is present at a 2:1 ratio to Cu, the amount of detectable H2O2 diminishes to one third that detected in the presence of Aβ. […] When QBP is added to the reaction mixture in place of 8HQ, a similar result is obtained."}, "Aβ [1]": {"system": "Aβ", "experiment": "Turbidity (light scattering) assay of metal-induced Aβ aggregation", "format": "biochemical", "protocol": "FIG. 4. […] Samples, which contain various combinations of 10 μM Aβ, 10 μM Cu(Gly)2, 10 μM ZnCl2, 10 or 20 μM 8HQ, 20 or 100 μM QBA, 20 or 100 μM QBP, as indicated on the graph, were incubated in a 96 well plate at 37° C. Total volume per well was made up to 200 μL with Hepes buffer. Abs readings were taken 64 min after mixing (diagonal hashed bars). After one hour incubation, 1 mM H2O2 was added to each well and Abs readings were taken after 30 min (horizontal striped bars). Error bars represent the variability of triplicate measurements."}, "[2]": {"details": "preliminary investigations", "source_text": "Quinoline boronic acid (QBA) is commercially available. […] In order to prevent premature metal binding, it was therefore necessary to form a boronic ester."}, "[3]": {"experiment": "UV-vis spectra of oxidation and Cu2+ binding by QBP", "details": "100 μM QBP", "protocol": "FIG. 2. Oxidation and Cu^2+ binding by QBP. 100 μM QBP and 50 μM Cu(Gly)2 were incubated in PBS buffer pH 7.4. After one hour, 4 mM H2O2 was added. After 60 min, oxidation and Cu binding were complete. Resulting spectrum is nearly identical to 8HQ-Cu spectra.\nWith the phenol of 8HQ masked by the pinanediol boronic ester, the QBP prochelator should have little to no affinity for metal ions."}, "Aβ [4]": {"system": "Aβ", "experiment": "UV-vis analysis of H2O2-treated Aβ samples", "format": "biochemical", "details": "samples containing Aβ/Cu/QBP/H2O2", "source_text": "FIG. 5. UV-vis analysis of H2O2-treated Aβ samples. The samples are the same ones as in FIG. 4.\nFurther confirmation that Cu(8HQ)2 is, indeed, generated in the reaction of Aβ/Cu/QBP/H2O2 described in FIG. 4 comes from the UV-vis spectrum of the reaction mixture, shown in FIG. 5.\nas §1"}, "[5]": {"experiment": "Rate of conversion of QBP to 8HQ by H2O2 (pseudo first-order, spectrophotometric)", "format": "physicochemical", "details": "100 μM QBP, PBS pH 7.4, 1-10 mM H2O2", "protocol": "FIG. 3. Plot of kobs at varying concentrations of H2O2 to obtain the rate constant k for the conversion of QBP to HQ. QBP was initially dissolved in a minimal amount of methanol and then diluted into PBS buffer, pH 7.4, to a final concentration of 100 μM. Spectra were taken immediately after addition of 1-10 mM H2O2; at least 40 spectra were collected before 50% conversion of prochelator to chelator. The change in absorbance at 273 nm was used to follow the reaction. The negative slope of the linear fit of ln(1−(A−Ao/Ao)) vs time gives the observed rate constant kobs. The slope of the line through data kobs vs [H2O2] provides k (M^−1 s^−1).\nIn order to determine the rate of conversion of QBP to 8HQ by H2O2 (Eq. 2), reactions were monitored spectrophotometrically under pseudo first-order conditions of excess H2O2. The observed rate constants (kobs) were plotted against peroxide concentration (FIG. 3) to give a rate constant k of 0.13 M^−1 s^−1. rate=k[QBP][H2O2] Eq. 2"}, "[6]": {"experiment": "Stability of QBP in aqueous solution (hydrolysis to QBA), monitored by UV-Vis and mass spectrometry", "format": "physicochemical"}}}
{"smiles": "Oc1cccc2cccnc12", "note": "[8HQ, 8-hydroxyquinoline, reference compound]", "values": [{"measurement": "amount of detectable H2O2 relative to that detected in the presence of Aβ", "setting": "H2O2 production by Cu; 8HQ at a 2:1 ratio to Cu", "value": "one third"}, {"measurement": "H2O2 production", "setting": "H2O2 production by Cu; 8HQ at a quarter of an equiv of Cu, 200 nM Cu(Gly)2, 200 nM Aβ, 10 μM ascorbic acid, 1-h incubation, pH 7.4", "value": "inhibits H2O2 production"}, {"measurement": "copper-induced Aβ aggregation", "setting": "Aβ [1]; 2 equiv of 8HQ, 10 μM Aβ, 10 μM Cu(Gly)2, 37° C.", "value": "completely inhibits"}, {"measurement": "zinc-induced Aβ aggregation", "setting": "Aβ [1]; 2 equiv of 8HQ, 10 μM Aβ, 10 μM ZnCl2, 37° C.", "value": "significantly reduces"}]}
{"smiles": "OBO.c1ccc2ncccc2c1", "note": "[QBA, Quinoline boronic acid]", "values": [{"measurement": "interaction with metal ions", "setting": "[2]", "value": "interacts directly with metal ions"}]}
{"smiles": "CC1(C)C2CC3OB(c4cccc5cccnc45)OC3(C)C1C2", "note": "(stereo not shown) [QBP]", "values": [{"measurement": "H2O2 detected relative to the concentration obtained in the absence of chelator", "setting": "H2O2 production by Cu; 100 μM QBP with Cu, ascorbate and Aβ", "value": "a third"}, {"measurement": "H2O2 detected", "setting": "H2O2 production by Cu; 100 μM QBP with Cu, ascorbate and Aβ, 1-h incubation", "value": "about 100 nM"}, {"measurement": "time after H2O2 addition at which oxidation and Cu binding were complete", "setting": "[3]; 50 μM Cu(Gly)2, PBS pH 7.4, 4 mM H2O2", "value": 60, "unit": "min"}, {"measurement": "spectrum after addition of H2O2", "setting": "[3]; 50 μM Cu(Gly)2, PBS pH 7.4, 4 mM H2O2 added", "value": "matches that of [Cu(8HQ)2]"}, {"measurement": "interaction with Cu2+ in prochelator form (UV-vis spectral change)", "setting": "[3]; 50 μM Cu(Gly)2, PBS pH 7.4, one hour, no H2O2", "value": "does not interact with Cu^2+"}, {"measurement": "formation of [Cu(8HQ)2] (absorbance band at 375 nm)", "setting": "Aβ [4]", "value": "[Cu(8HQ)2] has, indeed, been generated"}, {"measurement": "rate constant k for conversion of QBP to 8HQ by H2O2", "setting": "[5]", "value": 0.13, "unit": "M⁻¹ s⁻¹"}, {"measurement": "hydrolysis to QBA in aqueous solution", "setting": "[6]; between pH 5-8, over the course of 10 h", "value": "no signs of hydrolysis"}, {"measurement": "hydrolysis to QBA in aqueous solution", "setting": "[6]; low and high pH values outside pH 5-8, mass spectrometry", "value": "some hydrolysis to QBA was detected"}, {"measurement": "turbidity of Aβ/Cu2+ samples after H2O2 addition", "setting": "Aβ [1]; 1 mM H2O2 added after one hour incubation, read 30 min later", "value": "significant decrease in turbidity"}, {"measurement": "metal-induced Aβ aggregation", "setting": "Aβ [1]; 20 or 100 μM QBP, no H2O2", "value": "does not interfere"}]}
